Results taken from patent US20250368628A1, “METHODS AND COMPOUNDS FOR MODULATING INHERITED GENETIC DISEASES” (Design Therapeutics, Inc., priority 2022, published 2025).
Where two headings read alike, the source gives them in different places.

Legend:
F35T cells = experiment: Foci reduction in FECD (CAG10-Cy3 FISH, foci per nucleus); assay type: cell-based
How it was run: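 F35T cells, 5000 per well, were treated for 48 h at 37 °C, 5% CO2 in an 8-point dose response. Cells were then fixed in 4% PFA, permeabilized in 70% ethanol and hybridized overnight at 37 °C with a CAG10-Cy3 probe in 30% formamide/2×SSC. After DAPI staining, imaging gave foci per nucleus.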

[1] = system: Myotonic Dystrophy 1 affected patient fibroblasts (Coriel GM04602; 1600 CTG repeats); experiment: DM1 foci reduction assay (EC50 assay; CAG10-Cy3 FISH, foci per nucleus); assay type: cell-based
How it was run: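 GM04602 DM1 patient fibroblasts (1600 CTG repeats) seeded 24 h, then treated 48 h at 37 °C with an 8-point 1:3 dose series from 3 μM. Cells PFA-fixed, ethanol-permeabilized and hybridized overnight with 5 nM CAG10-Cy3 probe, DAPI counterstained. Imaged at 20×, 4 fields per well, as average foci per nucleus.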

[2] = F35T cells, 48 h treatment, foci per nucleus; read-out: FECD EC50, 48 h
[3] = Homo sapiens, Fibroblast; DM1 patient fibroblasts, 48 h treatment, foci per nucleus; read-out: DM1 EC50, 48 h
[4] = F35T cells, foci per nucleus, 48 h treatment; read-out: FECD EC50, 48 h
[5] = Homo sapiens, Fibroblast; DM1 patient fibroblasts, foci per nucleus, 48 h treatment; read-out: DM1 EC50, 48 h

| SMILES | EC50 (F35T cells; [2]) | EC50 [1, 3] | EC50 (F35T cells; [4]) | EC50 [1, 5] |
| --- | --- | --- | --- | --- |
| CC(=O)NCCCCn1cc(NC(=O)c2nc(NC(=O)CCNC(=O)c3cc(NC(=O)c4nccn4C)cn3C)cn2C)cc1C(=O)NCCCC(=O)Nc1cn(C)c(C(=O)NCCC(=O)Nc2cc(C(=O)Nc3cn(C)c(C(=O)NCCC(=O)N4CCC(C#CC#CC5CCN(C(C)=O)CC5)CC4)n3)n(C)c2)n1 [Compound B-283] | < 0.1 µM | 0.5 to 1 µM | – | – |
| Cn1cc(NC(=O)c2nc(NC(=O)CCNC(=O)c3cc(NC(=O)c4nccn4C)cn3C)cn2C)cc1C(=O)NCCCC(=O)Nc1cn(C)c(C(=O)NCCC(=O)Nc2cc(C(=O)Nc3cn(C)c(C(=O)NCCC(=O)N4CCN(CCOCCOCCOCCOCCN)CC4)n3)n(C)c2)n1 [Compound B-28] | 0.5 to 1 µM | 0.5 to 1 µM | – | – |
| CSCCCC(=O)N1CCC(C#CC#CC2CCN(CCOCCOCCOCCNC(=O)CCNC(=O)c3nc(NC(=O)c4cc(NC(=O)CCNC(=O)c5nc(NC(=O)CCCNC(=O)c6cc(NC(=O)c7nc(NC(=O)CCNC(=O)c8cc(NC(=O)c9nccn9C)cn8C)cn7C)cn6C)cn5C)cn4C)cn3C)CC2)CC1 [Compound B-173] | 0.1 to 0.5 µM | 0.1 to 0.5 µM | – | – |
| CCCCn1cc(NC(=O)c2nc(NC(=O)CCNC(=O)c3cc(NC(=O)c4nccn4C)cn3C)cn2C)cc1C(=O)NCCCC(=O)Nc1cn(C)c(C(=O)NCCC(=O)Nc2cc(C(=O)Nc3cn(C)c(C(=O)NCCC(=O)NCCC)n3)n(C)c2)n1 [Compound B-321] | < 0.1 µM | < 0.1 µM | – | – |
| CC(C)CCCN1CCC(C#CC#CC2CCN(CCCCCNC(=O)CCNC(=O)c3nc(NC(=O)c4cc(NC(=O)CCNC(=O)c5nc(NC(=O)CCCNC(=O)c6cc(NC(=O)c7nc(NC(=O)CCNC(=O)c8cc(NC(=O)c9nccn9C)cn8C)cn7C)cn6C)cn5C)cn4C)cn3C)CC2)CC1 [Compound B-185] | 0.1 to 0.5 µM | > 1 µM | – | – |
| CCCNC(=O)CCNC(=O)c1nc(NC(=O)c2cc(NC(=O)CCNC(=O)c3nc(NC(=O)[C@@H](CCNC(=O)c4cc(NC(=O)c5nc(NC(=O)CCNC(=O)c6cc(NC(=O)c7nccn7C)cn6C)cn5C)cn4C)NC(C)=O)cn3C)cn2C)cn1C [Compound B-5] | 0.1 to 0.5 µM | < 0.1 µM | – | – |
| Cn1cc(NC(=O)c2nc(NC(=O)CCNC(=O)c3cc(NC(=O)c4nccn4C)cn3C)cn2C)cc1C(=O)NCCCC(=O)Nc1cn(C)c(C(=O)NCCC(=O)Nc2cc(C(=O)Nc3cn(C)c(C(=O)NCCCN4CCCCC4)n3)n(C)c2)n1 [Compound B-208] | 0.1 to 0.5 µM | 0.1 to 0.5 µM | – | – |
| CC(=O)NCCOCCOCCOCCOCCOCCOCCOCCOCCOCCOCCNC(=O)CCNC(=O)c1nc(NC(=O)c2cc(NC(=O)CCNC(=O)c3nc(NC(=O)CCCNC(=O)c4cc(NC(=O)c5nc(NC(=O)CCNC(=O)c6cc(NC(C)c7nccn7C)cn6C)cn5C)cn4C)cn3C)cn2C)cn1C (stereo not shown) [Compound B-82] | 0.1 to 0.5 µM | 0.1 to 0.5 µM | – | – |
| CC#CC#CC1CCN(C(=O)CCNC(=O)c2nc(NC(=O)c3cc(NC(=O)CCNC(=O)c4nc(NC(=O)CCCNC(=O)c5cc(NC(=O)c6nc(NC(=O)CCNC(=O)c7cc(NC(=O)c8nccn8C)cn7C)cn6C)cn5C)cn4C)cn3C)cn2C)CC1 [Compound B-381] | 0.1 to 0.5 µM | 0.1 to 0.5 µM | – | – |
| CC(=O)N1CCC(N2CCN(C(=O)CCNC(=O)c3nc(NC(=O)c4cc(NC(=O)CCNC(=O)c5nc(NC(=O)CCCNC(=O)c6cc(NC(=O)c7nc(NC(=O)CCNC(=O)c8cc(NC(=O)c9nccn9C)cn8C)cn7C)cn6C)cn5C)cn4C)cn3C)CC2)CC1 [Compound B-119] | 0.5 to 1 µM | 0.1 to 0.5 µM | – | – |
| CCCNC(=O)CCNC(=O)c1nc(NC(=O)c2cc(NC(=O)CCNC(=O)c3nc(NC(=O)CCCNC(=O)c4cc(NC(=O)c5nc(NC(=O)CCNC(=O)c6cc(NC(=O)c7nccn7C)cn6C)cn5C)cn4CCN)cn3C)cn2C)cn1C [Compound B-265] | 0.1 to 0.5 µM | 0.1 to 0.5 µM | – | – |
| CN(C)CCCNC(=O)CCNC(=O)c1nc(NC(=O)c2cc(NC(=O)CCNC(=O)c3nc(NC(=O)CCCNC(=O)c4cc(NC(=O)c5nc(NC(=O)CCNC(=O)c6cc(NC(=O)c7nccn7C)cn6C)cn5C)cn4C)cn3C)cn2C)cn1C [Compound B-33] | 0.1 to 0.5 µM | 0.1 to 0.5 µM | – | – |
| CCCNC(=O)CCNC(=O)c1nc(NC(=O)c2cc(NC(=O)CCNC(=O)c3nc(NC(=O)CCCNC(=O)c4cc(NC(=O)c5nc(NC(=O)CCNC(=O)c6cc(NC(=O)c7nccn7C)cn6C)cn5C)cn4CCCOC(=O)c4ccccc4)cn3C)cn2C)cn1C [Compound B-432] | – | – | < 0.1 µM | < 0.1 µM |
| Cn1cc(NC(=O)c2nc(NC(=O)CCNC(=O)c3cc(NC(=O)c4nccn4C)cn3C)cn2C)cc1C(=O)NCCCC(=O)Nc1cn(C)c(C(=O)NCCC(=O)Nc2cc(C(=O)Nc3cn(C)c(C(=O)NCCC(=O)NCCOCCOCCOCCN4CCC(C#CC#CC5CCNCC5)CC4)n3)n(C)c2)n1 [Compound B-18] | 0.1 to 0.5 µM | 0.1 to 0.5 µM | – | – |
| CCN(CC)CCCC[C@H](NC(=O)c1cccnc1)C(=O)NCCOCCOCCOCCOCCOCCNC(=O)CCNC(=O)c1nc(NC(=O)c2cc(NC(=O)CCNC(=O)c3nc(NC(=O)CCCNC(=O)c4cc(NC(=O)c5nc(NC(=O)CCNC(=O)c6cc(NC(=O)c7nccn7C)cn6C)cn5C)cn4C)cn3C)cn2C)cn1C [Compound B-94] | 0.1 to 0.5 µM | 0.5 to 1 µM | – | – |
| CC(=O)NCCCCn1cc(NC(=O)c2nc(NC(=O)CCNC(=O)c3cc(NC(=O)c4nccn4C)cn3C)cn2C)cc1C(=O)NCCCC(=O)Nc1cn(C)c(C(=O)NCCC(=O)Nc2cc(C(=O)Nc3cn(C)c(C(=O)NCCC(=O)N4CCC(C#CC#CC5CCNCC5)CC4)n3)n(C)c2)n1 [Compound B-284] | < 0.1 µM | < 0.1 µM | – | – |
| CC(=O)NCCOCCn1cc(NC(=O)c2nc(NC(=O)CCNC(=O)c3cc(NC(=O)c4nccn4C)cn3C)cn2C)cc1C(=O)NCCCC(=O)Nc1cn(C)c(C(=O)NCCC(=O)Nc2cc(C(=O)Nc3cn(C)c(C(=O)NCCC(=O)N4CCC(C#CC#CC5CCNCC5)CC4)n3)n(C)c2)n1 [Compound B-300] | < 0.1 µM | < 0.1 µM | – | – |
| CC(=O)N1CCC(CN2CCN(C(=O)CCNC(=O)c3nc(NC(=O)c4cc(NC(=O)CCNC(=O)c5nc(NC(=O)CCCNC(=O)c6cc(NC(=O)c7nc(NC(=O)CCNC(=O)c8cc(NC(=O)c9nccn9C)cn8C)cn7C)cn6C)cn5C)cn4C)cn3C)CC2)CC1 [Compound B-115] | 0.5 to 1 µM | 0.1 to 0.5 µM | – | – |
| Cn1cc(NC(=O)c2nccn2C)cc1C(=O)NCCC(=O)Nc1cn(C)c(C(=O)Nc2cc(C(=O)NC[C@H](N)CC(=O)Nc3cn(C)c(C(=O)NCCC(=O)Nc4cc(C(=O)Nc5cn(C)c(C(=O)NCCC(=O)N6CCC(C#CC#CC7CCNCC7)CC6)n5)n(C)c4)n3)n(C)c2)n1 [Compound B-419] | – | – | < 0.1 µM | 0.1 to 0.5 µM |
| CCCNC(=O)CCNC(=O)c1nc(NC(=O)c2cc(NC(=O)CCNC(=O)c3nc(NC(=O)CCCNC(=O)c4cc(NC(=O)c5nc(NC(=O)CCNC(=O)c6cc(NC(=O)c7nccn7C)cn6C)cn5C)cn4CCC)cn3C)cn2C)cn1C [Compound B-320] | < 0.1 µM | < 0.1 µM | – | – |
| Cn1cc(NC(=O)c2nc(NC(=O)CCNC(=O)c3cc(NC(=O)c4nccn4C)cn3C)cn2C)cc1C(=O)NCCCC(=O)Nc1cn(C)c(C(=O)NCCC(=O)Nc2cc(C(=O)Nc3cn(C)c(C(=O)NCC#Cc4ccccc4)n3)n(C)c2)n1 [Compound B-245] | < 0.1 µM | < 0.1 µM | – | – |
| CN1CC(C2CCN(C(=O)CCNC(=O)c3nc(NC(=O)c4cc(NC(=O)CCNC(=O)c5nc(NC(=O)CCCNC(=O)c6cc(NC(=O)c7nc(NC(=O)CCNC(=O)c8cc(NC(=O)c9nccn9C)cn8C)cn7C)cn6C)cn5C)cn4C)cn3C)CC2)C1 [Compound B-143] | 0.1 to 0.5 µM | 0.1 to 0.5 µM | – | – |
| CCN(CC)CCCC[C@H](NC(C)=O)C(=O)Nc1ccc(OCCOCCOCCOCCOCCNC(=O)CCNC(=O)c2nc(NC(=O)c3cc(NC(=O)CCNC(=O)c4nc(NC(=O)CCCNC(=O)c5cc(NC(=O)c6nc(NC(=O)CCNC(=O)c7cc(NC(=O)c8nccn8C)cn7C)cn6C)cn5C)cn4C)cn3C)cn2C)cc1 [Compound B-146] | 0.1 to 0.5 µM | 0.1 to 0.5 µM | – | – |
| CCCNC(=O)CCNC(=O)c1nc(NC(=O)c2cc(NC(=O)CCNC(=O)c3nc(NC(=O)CCCNC(=O)c4cc(NC(=O)c5nc(NC(=O)CCNC(=O)c6cc(NC(=O)c7nccn7C)cn6C)cn5C)cn4CCCCCNC(=O)c4ccccc4)cn3C)cn2C)cn1C [Compound B-397] | 0.1 to 0.5 µM | 0.1 to 0.5 µM | – | – |
| CC(=O)NCCOCCOCCOCCOCCOCCNC(=O)CCNC(=O)c1nc(NC(=O)c2cc(NC(=O)CCNC(=O)c3nc(NC(=O)CCCNC(=O)c4cc(NC(=O)c5nc(NC(=O)CCNC(=O)c6cc(NC(C)c7nccn7C)cn6C)cn5C)cn4C)cn3C)cn2C)cn1C (stereo not shown) [Compound B-76] | 0.1 to 0.5 µM | 0.1 to 0.5 µM | – | – |
| CN1CCN(C(=O)CCNC(=O)c2nc(NC(=O)c3cc(NC(=O)CCNC(=O)c4nc(NC(=O)C[C@@H](N)CNC(=O)c5cc(NC(=O)c6nc(NC(=O)CCNC(=O)c7cc(NC(=O)c8nccn8C)cn7C)cn6C)cn5C)cn4C)cn3C)cn2C)CC1 [Compound B-416] | – | – | > 1 µM | 0.5 to 1 µM |
